In the oligonucleotide strings, read from the 5' end, every base follows the letter of its sugar. An asterisk marks phosphorothioate; unmarked linkages are phosphodiester. Other units and linkages are bracketed, terminal groups are in braces. A string of capitals states the bases alone. e = 2'-O-(2-methoxyethyl) (MOE); [5mC] = 5-methylcytosine; d = 2'-deoxy (DNA)
Test system: mouse growth hormone receptor mRNA
Assay: Inhibition of mouse growth hormone receptor mRNA levels in b.END cells, quantitative real-time PCR
Assay type: cell-based
Parameters: % INHIB: concentration or dose not given beside the values
Details: dose-response studies
Procedure: The mouse brain endothelial cell line b.END was obtained from Dr. Werner Risau at the Max Plank Instititute (Bad Nauheim, Germany). b.END cells were routinely cultured in DMEM, high glucose (Gibco/Life Technologies, Gaithersburg, Md.) supplemented with 10% fetal calf serum (Gibco/Life Technologies, Gaithersburg, Md.). Cells were routinely passaged by trypsinization and dilution when they reached 90% confluence. Cells were seeded into 96-well plates (Falcon-Primaria #3872) at a density of 3000 cells/well for use in RT-PCR analysis.
When cells reached 65-75% confluency, they were treated with oligonucleotide. For cells grown in 96-well plates, wells were washed once with 100 μL OPTI-MEM™-1 reduced-serum medium (Invitrogen Corporation, Carlsbad, Calif.) and then treated with 130 μL of OPTI-MEM™-1 containing 3.75 μg/mL LIPOFECTIN™ (Invitrogen Corporation, Carlsbad, Calif.) and the desired concentration of oligonucleotide. Cells are treated and data are obtained in triplicate. After 4-7 hours of treatment at 37° C., the medium was replaced with fresh medium. Cells were harvested 16-24 hours after oligonucleotide treatment.
Total RNA was isolated using an RNEASY 96™ kit and buffers purchased from Qiagen Inc. (Valencia, Calif.) following the manufacturer's recommended procedures. Briefly, for cells grown on 96-well plates, growth medium was removed from the cells and each well was washed with 200 μL cold PBS. 150 μL Buffer RLT was added to each well and the plate vigorously agitated for 20 seconds. 150 μL of 70% ethanol was then added to each well and the contents mixed by pipetting three times up and down. The samples were then transferred to the RNEASY 96™ well plate attached to a QIAVAC™ manifold fitted with a waste collection tray and attached to a vacuum source. Vacuum was applied for 1 minute. 500 μL of Buffer RW1 was added to each well of the RNEASY 96™ plate and incubated for 15 minutes and the vacuum was again applied for 1 minute. An additional 500 μL of Buffer RW1 was added to each well of the RNEASY 96™ plate and the vacuum was applied for 2 minutes. 1 mL of Buffer RPE was then added to each well of the RNEASY 96™ plate and the vacuum applied for a period of 90 seconds. The Buffer RPE wash was then repeated and the vacuum was applied for an additional 3 minutes. The plate was then removed from the QIAVAC™ manifold and blotted dry on paper towels. The plate was then re-attached to the QIAVAC™ manifold fitted with a collection tube rack containing 1.2 mL collection tubes. RNA was then eluted by pipetting 140 μL of RNAse free water into each well, incubating 1 minute, and then applying the vacuum for 3 minutes.
Quantitation of growth hormone receptor mRNA levels was accomplished by real-time quantitative PCR using the ABI PRISM™ 7600, 7700, or 7900 Sequence Detection System (PE-Applied Biosystems, Foster City, Calif.) according to manufacturer's instructions. This is a closed-tube, non-gel-based, fluorescence detection system which allows high-throughput quantitation of polymerase chain reaction (PCR) products in real-time. As opposed to standard PCR in which amplification products are quantitated after the PCR is completed, products in real-time quantitative PCR are quantitated as they accumulate. This is accomplished by including in the PCR reaction an oligonucleotide probe that anneals specifically between the forward and reverse PCR primers, and contains two fluorescent dyes. A reporter dye (e.g., FAM or JOE, obtained from either PE-Applied Biosystems, Foster City, Calif., Operon Technologies Inc., Alameda, Calif. or Integrated DNA Technologies Inc., Coralville, Iowa) is attached to the 5′ end of the probe and a quencher dye (e.g., TAMRA, obtained from either PE-Applied Biosystems, Foster City, Calif., Operon Technologies Inc., Alameda, Calif. or Integrated DNA Technologies Inc., Coralville, Iowa) is attached to the 3′ end of the probe. […]

| Substance | IC50 [nM] |
| --- | --- |
| 227507 (antisense eG*eT*e[5mC]*e[5mC]*eT*dT*dG*d[5mC]*dT*d[5mC]*d[5mC]*dA*dG*dG*dT*eT*eA*eG*e[5mC]*eA) [compound 227507] | ~12.5 |
| 227509 (antisense eG*e[5mC]*eA*eG*eT*dT*d[5mC]*dT*dA*dT*d[5mC]*dA*dG*dA*dA*e[5mC]*eT*eT*eT*eG) [compound 227509] | ~12.5 |

Same assay, conditions: mouse growth hormone receptor mRNA, b.END cells, averages from three experiments

| Substance | % INHIB [%] |
| --- | --- |
| 227471 (antisense eA*eG*eG*e[5mC]*eA*d[5mC]*dA*dA*dG*dA*dG*dA*dT*d[5mC]*dA*eG*e[5mC]*eT*eT*e[5mC]) [compound 227471] | 52 |
| 227472 (antisense eA*eG*eA*eG*e[5mC]*d[5mC]*dA*dA*dG*dG*dG*dA*dA*dG*d[5mC]*eA*eT*e[5mC]*eA*eT) [compound 227472] | 42 |
| 227473 (antisense eA*eA*eG*eT*e[5mC]*dA*dA*dT*dG*dT*dT*dT*dG*d[5mC]*d[5mC]*eA*eG*eT*eG*eA) [compound 227473] | 71 |
| 227474 (antisense eT*eG*eT*e[5mC]*eG*d[5mC]*dT*dT*dA*d[5mC]*dT*dT*dG*dG*dG*e[5mC]*eA*eT*eA*eA) [compound 227474] | 68 |
| 227476 (antisense eG*eT*eA*eA*eT*dT*dT*dT*d[5mC]*dT*dT*dG*dG*d[5mC]*dA*eG*eG*eG*e[5mC]*eG) [compound 227476] | 41 |
| 227477 (antisense e[5mC]*eA*e[5mC]*eT*eG*dT*dT*d[5mC]*dA*dT*dG*d[5mC]*dT*dG*dT*eA*eA*eT*eT*eT) [compound 227477] | 61 |
| 227478 (antisense eT*eT*eT*eT*eT*dG*dG*d[5mC]*dA*dT*d[5mC]*dT*dG*dA*d[5mC]*eT*e[5mC]*eA*e[5mC]*eA) [compound 227478] | 68 |
| 227479 (antisense eA*eT*eG*eT*e[5mC]*d[5mC]*dT*d[5mC]*dT*dT*dG*dG*dT*dT*dA*eA*eA*eG*e[5mC]*eT) [compound 227479] | 59 |
| 227485 (antisense e[5mC]*eG*eT*eG*eG*dT*dG*dT*dA*dG*dT*d[5mC]*dT*dG*dG*eG*eA*e[5mC]*eA*eG) [compound 227485] | 45 |
| 227486 (antisense e[5mC]*eG*eG*eT*eG*dT*dG*dA*dA*d[5mC]*d[5mC]*dG*dT*dG*dG*eT*eG*eT*eA*eG) [compound 227486] | 39 |
| 227487 (antisense eT*e[5mC]*eA*eG*eG*d[5mC]*dA*dA*dA*dG*dG*d[5mC]*dA*dA*dA*eG*e[5mC]*eA*eG*eT) [compound 227487] | 44 |
| 227491 (antisense eT*eA*eG*eG*eA*dA*dA*dG*dG*d[5mC]*dT*dA*d[5mC]*dT*dG*e[5mC]*eA*eT*eG*eA) [compound 227491] | 65 |
| 227492 (antisense eT*eA*eA*eA*eA*d[5mC]*dA*dT*dA*dG*dT*dT*dT*dT*dG*eG*eT*eT*eT*eA) [compound 227492] | 7 |
| 227493 (antisense eT*e[5mC]*e[5mC]*e[5mC]*eA*dA*d[5mC]*dA*d[5mC]*dA*dG*dA*dT*dT*dT*eA*eA*eA*eA*e[5mC]) [compound 227493] | 51 |
| 227494 (antisense e[5mC]*eA*eA*eA*eA*dG*d[5mC]*d[5mC]*dA*d[5mC]*d[5mC]*dT*dG*dA*dT*eT*eG*eT*eT*eT) [compound 227494] | 56 |
| 227495 (antisense eT*e[5mC]*e[5mC]*eT*eG*dA*dA*d[5mC]*dT*dG*d[5mC]*dA*dA*dA*dA*eG*e[5mC]*e[5mC]*eA*e[5mC]) [compound 227495] | 47 |
| 227496 (antisense eG*e[5mC]*eA*eT*eT*d[5mC]*dA*dA*dT*dT*dT*d[5mC]*d[5mC]*dT*dG*eA*eA*e[5mC]*eT*eG) [compound 227496] | 51 |
| 227497 (antisense eT*eA*eA*eA*eT*dG*dT*dT*dT*dT*dG*d[5mC]*dA*dT*dA*eT*e[5mC]*e[5mC]*eA*eA) [compound 227497] | 77 |

| Substance | % INHIB [%] |
| --- | --- |
| 227498 (antisense eT*eT*eG*eT*eA*dA*dA*dA*dA*dT*d[5mC]*dT*dA*dA*d[5mC]*eT*eT*eG*eT*eT) [compound 227498] | 49 |
| 227503 (antisense eT*eA*e[5mC]*e[5mC]*eT*dG*dA*dG*dA*d[5mC]*d[5mC]*d[5mC]*d[5mC]*dA*dG*eT*eT*e[5mC]*eA*eT) [compound 227503] | 24 |
| 227504 (antisense eT*eA*e[5mC]*e[5mC]*eT*dG*dA*dG*dA*d[5mC]*d[5mC]*d[5mC]*d[5mC]*dG*d[5mC]*eG*e[5mC]*eA*eG*e[5mC]) [compound 227504] | 34 |
| 227505 (antisense eT*eA*e[5mC]*e[5mC]*eT*dG*dA*dG*dA*d[5mC]*d[5mC]*d[5mC]*dA*d[5mC]*dA*eA*eG*e[5mC]*eG*eG) [compound 227505] | 39 |
| 227506 (antisense e[5mC]*e[5mC]*eT*e[5mC]*e[5mC]*dA*dG*dT*dA*d[5mC]*d[5mC]*dT*d[5mC]*dG*dG*eA*eG*eT*eT*eT) [compound 227506] | 69 |
| 227507 (antisense eG*eT*e[5mC]*e[5mC]*eT*dT*dG*d[5mC]*dT*d[5mC]*d[5mC]*dA*dG*dG*dT*eT*eA*eG*e[5mC]*eA) [compound 227507] | 89 |
| 227508 (antisense eT*eT*e[5mC]*e[5mC]*eA*d[5mC]*dT*d[5mC]*dA*d[5mC]*d[5mC]*d[5mC]*d[5mC]*dA*dG*eT*eT*e[5mC]*eA*eT) [compound 227508] | 51 |
| 227509 (antisense eG*e[5mC]*eA*eG*eT*dT*d[5mC]*dT*dA*dT*d[5mC]*dA*dG*dA*dA*e[5mC]*eT*eT*eT*eG) [compound 227509] | 82 |
| 227510 (antisense e[5mC]*eT*e[5mC]*e[5mC]*eA*dG*dA*d[5mC]*dG*dT*dG*dA*d[5mC]*d[5mC]*d[5mC]*eG*eA*e[5mC]*eT*e[5mC]) [compound 227510] | 64 |
| 227511 (antisense e[5mC]*e[5mC]*eA*e[5mC]*eG*d[5mC]*dA*d[5mC]*d[5mC]*d[5mC]*dA*d[5mC]*dA*dA*dG*e[5mC]*eG*eG*eA*eT) [compound 227511] | 71 |
| 227512 (antisense eT*eA*eA*e[5mC]*e[5mC]*dT*dA*dT*dG*dG*dT*dG*dA*d[5mC]*dT*eA*eT*eG*eT*e[5mC]) [compound 227512] | 36 |
| 227513 (antisense eT*eA*e[5mC]*e[5mC]*eT*dG*dA*dG*dA*d[5mC]*d[5mC]*dT*dG*d[5mC]*dA*eA*eG*eA*e[5mC]*eA) [compound 227513] | 40 |
| 227514 (antisense eA*eT*eG*e[5mC]*eT*d[5mC]*dA*d[5mC]*dG*dT*d[5mC]*dA*dG*d[5mC]*dT*eA*eT*eT*eG*eG) [compound 227514] | 43 |
| 227515 (antisense eA*eA*eA*eT*eT*d[5mC]*dT*dT*dA*d[5mC]*dT*dT*dG*dT*d[5mC]*e[5mC]*e[5mC]*e[5mC]*eA*eG) [compound 227515] | 37 |
| 227516 (antisense eT*eT*eG*eG*e[5mC]*dT*dT*dT*d[5mC]*d[5mC]*d[5mC]*dT*dG*dG*dA*eG*eG*eT*eT*e[5mC]) [compound 227516] | 57 |
| 227517 (antisense e[5mC]*eT*eT*e[5mC]*eA*d[5mC]*dT*dA*dA*d[5mC]*d[5mC]*dT*dT*dG*d[5mC]*eA*eG*e[5mC]*eT*eT) [compound 227517] | 63 |
| 227518 (antisense e[5mC]*eA*e[5mC]*eG*eG*d[5mC]*dT*dT*dA*d[5mC]*d[5mC]*dT*dA*dT*dT*eT*e[5mC]*eG*eT*e[5mC]) [compound 227518] | 6 |

From US8637484B2, “Modulation of growth hormone receptor expression and insulin-like growth factor expression” (Antisense Therapeutic Limited, priority 2003, dated 2014)
